IC50 data for 10 compounds are collected here from patent US10308639B2, “Phosphatidylinositol 3-kinase inhibitors” (Gilead Sciences, Inc., priority 2014, dated 2019).

Type in all cases: biochemical
For one assay, the target named is T1, PI3Kβ (Homo sapiens, UniProt P42338).
T1 construct: made in house
The assay can be described thus: TR-FRET enzymatic activity assay, PI3Kβ. To be noted: Table 2; TR-FRET, 2x Km ATP, 30 minutes at 25° C.

A further assay deals with T2, PI3Kγ (Homo sapiens, UniProt P48736).
T2 construct: made in house
The assay can be described thus: TR-FRET enzymatic activity assay, PI3Kγ. To be noted: read-out: PI3Kγ IC50. In a few lines:
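Activity measured by time-resolved FRET; each isoform tested in its own enzymatic reaction.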
(In general: TR-FRET usually uses a lanthanide donor and a delayed reading to cut background.)

Another assay concerns the target T3, PI3Kδ (Homo sapiens, UniProt O00329).
T3 construct: made in house
In words: TR-FRET enzymatic activity assay, PI3Kδ.

Setting [1] is: Table 2, TR-FRET, 2x Km ATP, 30 minutes at 25° C.

Where two headings read alike, the source gives them in different places.

T2 sequence (P48736 whole entry): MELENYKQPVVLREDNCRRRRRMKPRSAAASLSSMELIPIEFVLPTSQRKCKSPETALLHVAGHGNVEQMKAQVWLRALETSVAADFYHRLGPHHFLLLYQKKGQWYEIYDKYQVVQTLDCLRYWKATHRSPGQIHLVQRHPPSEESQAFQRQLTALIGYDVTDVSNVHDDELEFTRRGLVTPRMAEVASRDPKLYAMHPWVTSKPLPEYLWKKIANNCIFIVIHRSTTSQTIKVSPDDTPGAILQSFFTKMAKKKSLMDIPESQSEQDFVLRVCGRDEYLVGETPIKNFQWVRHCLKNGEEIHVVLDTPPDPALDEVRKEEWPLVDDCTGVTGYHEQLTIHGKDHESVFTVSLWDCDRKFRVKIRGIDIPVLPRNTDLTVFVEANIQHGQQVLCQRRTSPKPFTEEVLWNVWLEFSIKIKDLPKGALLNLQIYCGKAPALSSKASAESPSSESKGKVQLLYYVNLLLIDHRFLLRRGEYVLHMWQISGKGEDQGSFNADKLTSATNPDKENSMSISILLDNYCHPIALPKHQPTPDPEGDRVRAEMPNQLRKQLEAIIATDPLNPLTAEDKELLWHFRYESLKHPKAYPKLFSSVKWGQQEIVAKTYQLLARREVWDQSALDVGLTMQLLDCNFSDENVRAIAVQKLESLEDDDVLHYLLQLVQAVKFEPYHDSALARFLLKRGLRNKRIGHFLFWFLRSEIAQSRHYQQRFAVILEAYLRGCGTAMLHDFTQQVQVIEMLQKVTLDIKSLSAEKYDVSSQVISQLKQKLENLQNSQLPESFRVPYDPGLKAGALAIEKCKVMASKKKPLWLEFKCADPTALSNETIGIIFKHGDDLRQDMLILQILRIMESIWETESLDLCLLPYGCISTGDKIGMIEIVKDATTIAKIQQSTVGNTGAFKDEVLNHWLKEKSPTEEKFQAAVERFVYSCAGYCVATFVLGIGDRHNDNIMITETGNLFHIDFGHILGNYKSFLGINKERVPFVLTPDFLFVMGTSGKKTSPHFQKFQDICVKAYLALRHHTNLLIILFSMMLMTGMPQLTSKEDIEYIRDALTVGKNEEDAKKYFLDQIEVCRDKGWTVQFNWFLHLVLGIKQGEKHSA
T1 sequence (P42338 whole entry): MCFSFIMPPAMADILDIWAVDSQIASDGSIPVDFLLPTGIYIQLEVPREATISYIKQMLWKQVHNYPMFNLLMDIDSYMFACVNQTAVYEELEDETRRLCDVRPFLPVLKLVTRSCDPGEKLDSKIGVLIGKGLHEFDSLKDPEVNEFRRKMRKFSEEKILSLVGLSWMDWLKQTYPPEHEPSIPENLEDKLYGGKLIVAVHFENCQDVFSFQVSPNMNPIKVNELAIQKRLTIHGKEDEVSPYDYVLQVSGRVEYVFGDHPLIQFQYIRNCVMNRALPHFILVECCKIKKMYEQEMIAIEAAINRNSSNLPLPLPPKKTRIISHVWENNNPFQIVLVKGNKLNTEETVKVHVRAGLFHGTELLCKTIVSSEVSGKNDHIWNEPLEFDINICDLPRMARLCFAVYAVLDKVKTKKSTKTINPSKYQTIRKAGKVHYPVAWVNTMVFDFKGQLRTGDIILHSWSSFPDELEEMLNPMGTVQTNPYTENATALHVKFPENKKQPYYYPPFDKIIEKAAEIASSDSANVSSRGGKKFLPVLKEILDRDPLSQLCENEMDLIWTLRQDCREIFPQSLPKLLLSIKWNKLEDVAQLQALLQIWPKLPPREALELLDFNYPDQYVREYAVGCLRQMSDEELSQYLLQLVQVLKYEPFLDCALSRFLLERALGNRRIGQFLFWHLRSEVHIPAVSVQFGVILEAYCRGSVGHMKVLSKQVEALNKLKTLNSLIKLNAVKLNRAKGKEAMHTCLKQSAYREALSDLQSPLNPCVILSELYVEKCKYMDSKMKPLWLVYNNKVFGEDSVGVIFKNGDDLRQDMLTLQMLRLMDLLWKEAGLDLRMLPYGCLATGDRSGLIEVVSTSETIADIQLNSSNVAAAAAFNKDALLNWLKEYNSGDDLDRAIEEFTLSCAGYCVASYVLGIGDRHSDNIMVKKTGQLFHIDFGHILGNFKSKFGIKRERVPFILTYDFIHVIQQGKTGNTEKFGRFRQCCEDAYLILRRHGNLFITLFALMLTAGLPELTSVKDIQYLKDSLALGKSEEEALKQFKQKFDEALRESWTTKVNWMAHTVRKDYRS
T1 sequence (P27986 whole entry partner): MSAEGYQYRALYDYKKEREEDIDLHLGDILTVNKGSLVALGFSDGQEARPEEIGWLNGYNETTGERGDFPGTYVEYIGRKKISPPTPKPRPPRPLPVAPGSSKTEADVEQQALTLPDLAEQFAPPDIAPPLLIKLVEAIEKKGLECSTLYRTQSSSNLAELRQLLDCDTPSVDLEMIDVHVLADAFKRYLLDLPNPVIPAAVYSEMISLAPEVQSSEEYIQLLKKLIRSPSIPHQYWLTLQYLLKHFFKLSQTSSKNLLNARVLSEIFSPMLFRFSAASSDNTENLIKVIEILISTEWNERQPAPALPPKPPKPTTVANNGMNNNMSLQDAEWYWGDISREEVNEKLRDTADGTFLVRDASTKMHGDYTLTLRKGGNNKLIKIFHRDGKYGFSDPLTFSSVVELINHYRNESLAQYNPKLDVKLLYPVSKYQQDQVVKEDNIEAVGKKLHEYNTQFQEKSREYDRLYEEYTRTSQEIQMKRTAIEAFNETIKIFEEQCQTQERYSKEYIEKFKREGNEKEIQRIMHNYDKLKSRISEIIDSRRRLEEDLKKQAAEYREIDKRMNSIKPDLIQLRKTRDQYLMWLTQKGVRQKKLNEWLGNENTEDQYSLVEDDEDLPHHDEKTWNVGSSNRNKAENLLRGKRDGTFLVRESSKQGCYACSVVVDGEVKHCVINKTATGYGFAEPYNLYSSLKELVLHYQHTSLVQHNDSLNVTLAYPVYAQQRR
T3 sequence (O00329 whole entry): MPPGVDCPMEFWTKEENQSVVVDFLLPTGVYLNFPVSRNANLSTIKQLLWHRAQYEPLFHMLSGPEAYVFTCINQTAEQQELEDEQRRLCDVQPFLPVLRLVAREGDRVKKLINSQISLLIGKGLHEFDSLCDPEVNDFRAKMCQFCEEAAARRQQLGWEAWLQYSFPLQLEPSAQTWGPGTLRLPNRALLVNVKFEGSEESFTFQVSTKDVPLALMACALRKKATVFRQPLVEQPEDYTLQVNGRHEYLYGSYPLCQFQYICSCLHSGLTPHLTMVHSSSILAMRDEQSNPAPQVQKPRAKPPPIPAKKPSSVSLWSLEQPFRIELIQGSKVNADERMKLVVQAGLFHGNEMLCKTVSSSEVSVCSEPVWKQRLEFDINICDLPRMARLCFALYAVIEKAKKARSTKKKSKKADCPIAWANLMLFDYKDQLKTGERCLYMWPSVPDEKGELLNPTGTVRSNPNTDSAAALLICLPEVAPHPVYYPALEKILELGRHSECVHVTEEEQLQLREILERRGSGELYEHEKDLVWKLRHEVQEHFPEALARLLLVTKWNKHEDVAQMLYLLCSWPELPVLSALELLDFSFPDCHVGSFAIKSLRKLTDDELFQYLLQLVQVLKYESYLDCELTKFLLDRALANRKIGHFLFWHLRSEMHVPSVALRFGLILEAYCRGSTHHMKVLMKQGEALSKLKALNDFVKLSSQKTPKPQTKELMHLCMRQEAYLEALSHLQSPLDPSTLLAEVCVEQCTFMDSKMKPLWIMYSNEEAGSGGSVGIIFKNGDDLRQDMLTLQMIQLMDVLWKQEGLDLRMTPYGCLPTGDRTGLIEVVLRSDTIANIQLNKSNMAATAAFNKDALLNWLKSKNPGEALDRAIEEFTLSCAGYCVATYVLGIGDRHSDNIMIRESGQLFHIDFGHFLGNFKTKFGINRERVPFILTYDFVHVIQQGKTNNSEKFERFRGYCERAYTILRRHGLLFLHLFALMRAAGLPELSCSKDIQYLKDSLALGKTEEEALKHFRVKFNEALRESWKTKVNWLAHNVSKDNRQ
T3 sequence (P27986 whole entry partner): as the sequence (P27986 whole entry partner) above

The term IC50 denotes the concentration that gives 50% inhibition. Take `CC[C@H](Nc1ncnc2[nH]cc(F)c12)c1nc2c(Cl)ccc(Cl)c2c(=O)n1-c1cc[nH]n1` [Compound 59, (S)-5,8-dichloro-2-(1-((5-fluoro-7H-pyrrolo[2,3-d]pyrimidin-4-yl)amino)propyl)-3-(1H-pyrazol-3-yl)quinazolin-4(3H)-one]: the IC50 on PI3Kβ is 97 nM; at PI3Kγ it was over 10000 nM; against PI3Kδ it was 2 nM.

For the compound `C[C@H](Nc1ncnc2sccc12)c1nc2cccc(Cl)c2c(=O)n1-c1cc[nH]n1` [Compound 60, (S)-5-chloro-3-(1H-pyrazol-3-yl)-2-(1-(thieno[2,3-d]pyrimidin-4-ylamino)ethyl)quinazolin-4(3H)-one], the IC50 at PI3Kβ was 43 nM; at PI3Kγ it was over 10000 nM; against PI3Kδ (setting [1]) it was 2 nM.

On to `C[C@H](Nc1ncnc2ccoc12)c1nc2cccc(Cl)c2c(=O)n1-c1cc[nH]n1` [Compound 61, (S)-5-chloro-2-(1-(furo[3,2-d]pyrimidin-4-ylamino)ethyl)-3-(1H-pyrazol-3-yl)quinazolin-4(3H)-one], for which the IC50 on PI3Kβ was found to be 20 nM; at PI3Kγ (setting [1]), 8100 nM; on PI3Kδ (setting [1]), 3 nM.

In the case of `CC[C@H](Nc1ncnc2ccoc12)c1nc2c(Cl)ccc(Cl)c2c(=O)n1-c1cc[nH]n1` [Compound 62, (S)-5,8-dichloro-2-(1-(furo[3,2-d]pyrimidin-4-ylamino)propyl)-3-(1H-pyrazol-3-yl)quinazolin-4(3H)-one], the 50% inhibitory concentration (IC50) is 120 nM on PI3Kβ, over 10000 nM at PI3Kγ and 9 nM against PI3Kδ (setting [1]).

As to `CC[C@H](Nc1nc(N)nc(N)c1Cl)c1nc2cccc(Cl)c2c(=O)n1-c1cc[nH]n1` [Compound 65, (S)-5-chloro-2-(1-((2,6-diamino-5-chloropyrimidin-4-yl)amino)propyl)-3-(1H-pyrazol-3-yl)quinazolin-4(3H)-one], the IC50 came out at 18 nM at PI3Kβ, 4200 nM at PI3Kγ (setting [1]) and 9 nM against PI3Kδ (setting [1]).

On to `CC[C@H](Nc1nc(N)nc(N)c1Cl)c1nc2c(Cl)ccc(Cl)c2c(=O)n1-c1cc[nH]n1` [Compound 66, (S)-5,8-dichloro-2-(1-((2,6-diamino-5-chloropyrimidin-4-yl)amino)propyl)-3-(1H-pyrazol-3-yl)quinazolin-4(3H)-one], for which the IC50 is 150 nM against PI3Kβ, over 10000 nM on PI3Kγ and 36 nM on PI3Kδ (setting [1]).

On to `C[C@H](Nc1nc(N)nc(N)c1Cl)c1nc2c(F)ccc(Cl)c2c(=O)n1-c1cc[nH]n1` [Compound 67, (S)-5-chloro-2-(1-((2,6-diamino-5-chloropyrimidin-4-yl)amino)ethyl)-8-fluoro-3-(1H-pyrazol-3-yl)quinazolin-4(3H)-one], for which the IC50 turned out to be 3 nM at PI3Kβ, 2800 nM at PI3Kγ (setting [1]) and 3 nM on PI3Kδ (setting [1]).

`CC[C@H](Nc1nc(N)nc(N)c1Cl)c1nc2c(F)ccc(Cl)c2c(=O)n1-c1cc[nH]n1` [Compound 68, (S)-5-chloro-2-(1-((2,6-diamino-5-chloropyrimidin-4-yl)amino)propyl)-8-fluoro-3-(1H-pyrazol-3-yl)quinazolin-4(3H)-one]: the IC50 on PI3Kβ is 44 nM; at PI3Kγ, over 10000 nM; against PI3Kδ (setting [1]), 20 nM.

As to `C[C@H](Nc1nc(N)nc(N)c1Cl)c1nc2c(Cl)ccc(Cl)c2c(=O)n1-c1cc[nH]n1` [Compound 69, (S)-5,8-dichloro-2-(1-((2,6-diamino-5-chloropyrimidin-4-yl)amino)ethyl)-3-(1H-pyrazol-3-yl)quinazolin-4(3H)-one], the results for the concentration for half-maximal inhibition (IC50) against PI3Kβ, on PI3Kγ and against PI3Kδ (setting [1]) were 13 nM, over 10000 nM and 6 nM, respectively.

With `Nc1nc(N)c(Cl)c(N[C@H](c2nc3c(F)ccc(Cl)c3c(=O)n2-c2cc[nH]n2)C2CC2)n1` [Compound 70, (S)-5-chloro-2-(cyclopropyl((2,6-diamino-5-chloropyrimidin-4-yl)amino)methyl)-8-fluoro-3-(1H-pyrazol-3-yl)quinazolin-4(3H)-one], the IC50 is 30 nM on PI3Kβ, over 10000 nM on PI3Kγ and 14 nM on PI3Kδ (setting [1]).
